Converted amounts (≈) assume the structure as drawn.
Columns and labels:
L 1210 cell = test: 20% cytotoxic index, trypan blue exclusion, 24 h (TEST N° 1); assay type: cell-based, mouse; design: key to DOSE CORRESPONDING TO A 20% CYTOTOXIC INDEX: N.S.: not significant; details: L1210 cells, 24 hours at 37° C.; for IC20: Mus musculus, read-out: DOSE COR[…] A 20% CYTOTOXIC INDEX, read-out: DOSE CORRESPONDING TO A 20% CYTOTOXIC INDEX
Method: (§1) The test used is that of W. J. Durkin et al. Cancer Research 1979, 39, 402-407, modified.
(§2) All the nitrosoureas were dissolved in 70% ethanol in the proportion of 10 mg/ml.
1--Determination of the 20% cytotoxic index
100 μl of an L 1210 cell suspension (10^6 cells per ml) in R P M I 1640 culture medium supplemented with 10% of fetal calf serum and 40 μg/ml of gentamycin, containint various doses of the products to be tested (0 to 100 μg/ml) were incubated 24 hours at 37° C. At the end of this time, the cell viability is determined by the trypan blue exclusion test. The cytotoxic index is defined by the formula: [formula]
The amount of ethanol is the same in the cultures containing the products to be tested and in the control cultures (this amount has no effect either on growth nor on cell viability).
For each product the dose which gives a cytotoxic index of 20% is determined.

L 1210 cells = test: cytotoxic index after 1 h contact, potential "in vivo" activity (TEST N° 2); assay type: cell-based, mouse; design: key to CYTOTOXIC INDEX: N.S.: not significant; details: for CYTOTOXIC INDEX: 1 hour contact at dose giving 20% index, read after 48 hours; for POTENTIAL "IN VIVO" ACTION: active if cytotoxic index ≥40%
Method: as §1, §2
2--Determination of the potential "in vivo" activity
L 1210 cells, under conditions similar to the preceding protocol, were contacted for 1 hour with a dose of the various products tested corresponding to a cytotoxic index equal to 20%. After this time, the cells were placed in culture medium not containing nitrosoureas and incubated at 37° C. After 48 hours, the cytotoxic index was determined.

leucemia L 1210 IGR = test: "in vivo" activity on leucemia L1210 IGR, 20 mg/kg i.p. days 1, 5, 9; design: species or system mouse; details: for percentage of cured mice: surviving more than 60 days
Method: Female DBA2 mice were used, about 8 weeks old and weighing about 20 g from the IFFA-CREDO center (les Oncins, 69210 Arbresles)
At day "0", each mouse received intraperitoneally an inoculum of […] in a volume of 0.2 ml.
After tumoral graft, the mice were distributed at random into 21 cages of 5 animals, themselves then distributed, by drawing lots, into 6 experimental series. Within these 6 experimental series, there were constituted a control series of 6 cages and 5 experimental series of 3 cages each, and of which the mice were intended to be treated by the compounds of the invention.
(§3) The protocol was identical for the 3 tumors and the 5 compounds of the invention to be tested.
(§4) As regards the experimental series to be treated, each mouse received, at days 1, 5 and 9, intraperitoneally, a dose of 20 mg/kg of the compound to be tested, in the volume of 0.2 ml of neutralized and sterilized olive oil.
(§5) As regards the control series, each mouse received, intraperitoneally, 0.2 ml of neutralized and sterilized olive oil.
(§6) The results are expressed by the relative increase in survival (T/C×100) calculated from the average survival of the treated animals (T) and that of the control animals (C)
(§7) The mice surviving more than 60 days were considered as cured.
(§8) The figures between parentheses indicate the percentage of cured mice.

Tumor LEWIS 3LL = test: "in vivo" activity on Lewis tumor, 20 mg/kg i.p. days 1, 5, 9; design: species or system mouse; details: for percentage of cured mice: surviving more than 60 days
Method: Procedure was under the conditions which have just been described previously with regard to melanoma B16, by injecting the tumor cells, in the proportion of 2×10^6 per mouse, in the volume of 0.2 ml.
as §3, §4, §5, §6, §7, §8

melanoma B16 [1] = test: "in vivo" activity on melanoma B16, 20 mg/kg i.p. days 1, 5, 9; design: species or system mouse; details: for percentage of cured mice: surviving more than 60 days
Method: Female C57 B 1/6 mice were used, about 8 weeks old and weighing about 20 g, from the IFFA-CREDO center.
At day "0", each mouse received intraperitoneally an inoculum of 2×10^6 tumor cells in a volume of 0.5 ml.
After tumoral graft, distribution at random was carried out as indicated above, to obtain a control series of 8 cages and 5 experimental series of 4 cages each, and of which the mice were intended to be treated by the compounds of the invention.
as §3, §4, §5, §6, §7, §8

L 1210 USA Tumor = test: "in vivo" activity on L1210 U.S.A. tumor, 5 mg/kg i.p. days 1, 5, 9; design: species or system mouse
Method: The tumor L1210 U.S.A. is more resistant than tumor L1210 IGR.
(§9) The experiments were identical to those described in preceding paragraph 4 but lower doses were used.
There were inoculated into the mice, 10^5 tumor cells of L1210 U.S.A. intraperitoneally in a volume of 0.2 ml.
At days 1, 5 and 9, the compounds of the invention under test were injected intraperitoneally, at a lower dose than that used in the experiment described at 4, that is to say in the proportion of 5 mg/kg.

L 1210 IGR TUMOR = test: "in vivo" activity on L1210 IGR tumor, 5 mg/kg i.p. days 1, 5, 9; design: species or system mouse
Method: as §9
The same protocol was carried out with the tumor L1210 IGR, by inoculating 10^5 tumor cells of L1210 IGR intraperitoneally in the volume of 0.2 ml then, at days 1, 5 and 9, there were injected intraperitoneally 5 mg/kg of each of the compounds to be tested.

L1210 U.S.A. = test: antitumor activity on leukemia L1210 U.S.A., products of examples 33-39, I.P.; assay type: in vivo, mouse
Method: The experiments were always carried out on female mice which were specific pathogen-free (S. P. F.),
either of the line DBA/2JIco
or of the line B6 D2 F1/JIco (first generation hybrids between the lines C57BL/6 and DBA/2).
On the day of the graft (by convention day 0=D0) an inoculum of 1×10^5 tumor cells in a volume of 0.2 ml is administered to each mouse by the intraperitoneal route (I.P.).
This inoculum is prepared by diluting ascites fluid taken from the peritoneum of a donor female mouse in NCTC 109 medium (Eurobio Laboratories, Paris, France), counting of the cells in a MALASSEZ cell under a microscope and adjustment of the concentration to 5×10^5cells […] by means of the same medium.
The tumor line is an American strain of the line L1210.
After the tumor graft, the mice are distributed at random in cages of 5 animals. Subsequently, these cages containing 5 mice are themselves distributed at random into a control group (control) and groups treated with the I.C. products.
(§10) The doses of the products of the invention used in the different experiments are expressed in milligrams per kilogram of body weight.
(§11) The products to be injected were dissolved in isotonic sodium chloride solution.
2 protocols for treatment were used in the different experiments:
either a single injection on D1, by the intraperitoneal (I.P.) or intravenous (I.V.) route,
(§12) or 3 I.P. injections on D1, D5, D9.
(§13) In each experiment the animals of the control group received 1 or more injections, depending on the experimental protocol used, by the same route (I.P. or I.V.) of the same volume (0.2 ml/20 g) of the vehicle without the active principle (isotonic sodium chloride solution).
(§14) the number and percentage of the total of the mice surviving to D60,
(§15) the T/C×100 for the treated groups.
(§16) T representing the mean survival time of the mice in the treated group,
(§17) C representing the mean survival time of the mice in the control group (controls).

melanoma B16 [2] = test: antitumor activity on melanoma B16, products of examples 33-39, I.P.; assay type: in vivo, mouse; details: B6 D2 F1, I.P. D1, D5, D9, 3×10 mg/kg
Method: The experiments are always carried out on SPF female mice, B6 D2 F1/JIco (first generation hybrids between the lines C57BL/6 and DBA/2).
On the day of the graft (day 0), an inoculum of 2×10^6 tumor cells in a volume of 0.5 ml is administered to each mouse by the intraperitoneal route (I.P.). This inoculum is prepared from a sub-cutaneous tumor excised from a donor female mouse. After excision the tumor is fragmented by means of a pair of scissors in the NCTC 109 medium. After filtration through sterile gauze in order to remove large cellular fragments, the homogeneous cell suspension obtained is counted by means of a MALASSEZ cell and diluted to the desired concentration (4×10^6tumor cells per ml) by dilution with the NCTC 109 medium.
This was performed in the manner described for the leukemia L1210 (see above).
as §10, §11, §12, §13, §14, §15, §16, §17

[3] = toxicological results, single I.P. dose, DL0 and DL50; assay type: in vivo, mouse; details: mouse, in vivo, ip, mice
Description: DL0, DL50, single I.P. dose administered to the aforementioned strains of mice.

[4] = B6 D2 F1, I.P. D1, D5, D9, 3×1.25 mg/kg
[5] = B6 D2 F1, I.P. D1, D5, D9, 3×5 mg/kg

Compound	CYTOTOXIC INDEX (L 1210 cells)	relative increase in survival (T/C×100) (leucemia L 1210 IGR)	percentage of cured mice (leucemia L 1210 IGR) [%]	relative increase in survival (T/C×100) (Tumor LEWIS 3LL)	percentage of cured mice (Tumor LEWIS 3LL) [%]	relative increase in survival (T/C×100) (melanoma B16 [1])	percentage of cured mice (melanoma B16 [1]) [%]	Average survival ±2 σm (L 1210 USA Tumor)	Median survival (L 1210 USA Tumor)	T/C × 100 (average survival) (L 1210 USA Tumor)	T/C × 100 (median survival) (L 1210 USA Tumor)	Average survival ±2 σm (L 1210 IGR TUMOR)	Median survival (L 1210 IGR TUMOR)	T/C × 100 (average survival) (L 1210 IGR TUMOR)	T/C × 100 (median survival) (L 1210 IGR TUMOR)	IC20 (L 1210 cell) [µg/mL]	POTENTIAL "IN VIVO" ACTION (L 1210 cells)	other results
CO[C@@H]1C[C@@H](O)[C@H](O)[C@@H](CNC(=O)N(CCCl)N=O)O1 [IC 1350]	N.S.	362	20	325	40	225	5	10,5 ± 0,74	10,25	126	118	14,3 ± 1,23	14,25	158	157	–	–	DOSE CORRESPONDING TO A 20% CYTOTOXIC INDEX (L 1210 cell): N.S.
CO[C@@H]1C[C@@H](NC(=O)N(CCCl)N=O)[C@H](OC)[C@@H](C)O1 [IC 1373, Methyl 3-[3-(2-chloroethyl) 3-nitrosoureido] 2,3,6-tridesoxy 4-O-methyl alpha-D-arabinohexopyranoside]	68%	.infin. (The sign 00 indicates that 50% at least of the mice were cured)	100	316	30	165	0	10,6 ± 0,44	10,6	123	122	12,9 ± 0,55	13,1	142	145	80 (≈ 258 µM)	+ (if the cytotoxic index was equal to or greater than 40%, the product concerned would be active "in vivo" in the mouse)	–
CO[C@@H]1C[C@@H](N(C)C(=O)N(CCCl)N=O)[C@H](O)[C@@H](C)O1 [IC 1375, Methyl 3-[3-(2-chloroethyl) 1-methyl 3-nitrosoureido] 2,3,6-tridesoxy α-D-arabinohexopyranoside]	69%	–	–	–	–	–	–	–	–	–	–	–	–	–	–	60 (≈ 194 µM)	+ (if the cytotoxic index was equal to or greater than 40%, the product concerned would be active "in vivo" in the mouse)	–
CO[C@H]1C[C@@H](NC(=O)N(CCCl)N=O)[C@H](O)[C@@H](CO)O1 [IC. 85-1673, methyl 3-[3-(2-chloroethyl) 3-nitrosoureido] 2,3-dideoxy β-D-arabino-hexopyranoside]	–	–	–	–	–	–	–	–	–	–	–	–	–	–	–	–	–	Number of survivors (L1210 U.S.A.; [4]): 0/10; T/C (L1210 U.S.A.; [4]): 158; Number of survivors (L1210 U.S.A.; [5]): 6/10; T/C (L1210 U.S.A.; [5]): 626; Number of survivors (melanoma B16 [2]): 4/10; T/C (melanoma B16 [2]): 232; LD50 [3]: ~20 mg/kg

— patent publication US4902791A, “Nitrosourea derivatives, process for their preparation and medicaments containing them” (Sanofi S.A., priority 1983, dated 1990)
